The supplement of paper PMC10307832

Assays:
Test in all cases: relative viability (nuclei count vs DMSO), 5 days (fraction); higher = more cells survive
Imatinib + Bortezomib = compound: Cc1ccc(NC(=O)c2ccc(CN3CCN(C)CC3)cc2)cc1Nc1nccc(-c2cccnc2)n1 [Imatinib] + CC(C)C[C@H](NC(=O)[C@H](Cc1ccccc1)NC(=O)c1cnccn1)B(O)O [Bortezomib] (partner 0.002 µM)
Outline: (§1)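 Relative viability divides the nuclei count in treated wells by that in vehicle wells. Lung cancer cell lines were seeded in 1536-well plates, dosed by pin tool the next day, and fixed and stained after 5 days in one step with final 0.05% Triton X-100, 1% formaldehyde and 1 ug/ml Hoechst. Dosing was a single drug or a fixed anchor-drug dose plus five library-drug doses (not always all listed) in √10 steps, and values are medians of duplicate plates imaged at 4×.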

Imatinib + Lapatinib = compound: Cc1ccc(NC(=O)c2ccc(CN3CCN(C)CC3)cc2)cc1Nc1nccc(-c2cccnc2)n1 [Imatinib] + CS(=O)(=O)CCNCc1ccc(-c2ccc3ncnc(Nc4ccc(OCc5cccc(F)c5)c(Cl)c4)c3c2)o1 [Lapatinib] (partner 2 µM)
Outline: as §1

Imatinib + Pictilisib = compound: Cc1ccc(NC(=O)c2ccc(CN3CCN(C)CC3)cc2)cc1Nc1nccc(-c2cccnc2)n1 [Imatinib] + CS(=O)(=O)N1CCN(Cc2cc3nc(-c4cccc5[nH]ncc45)nc(N4CCOCC4)c3s2)CC1 [Pictilisib] (partner 1 µM)
Outline: as §1

Imatinib + Alpelisib = compound: Cc1ccc(NC(=O)c2ccc(CN3CCN(C)CC3)cc2)cc1Nc1nccc(-c2cccnc2)n1 [Imatinib] + Cc1nc(NC(=O)N2CCC[C@H]2C(N)=O)sc1-c1ccnc(C(C)(C)C(F)(F)F)c1 [Alpelisib] (partner 2 µM)
Outline: as §1

Cell Line | relative viability (Imatinib + Bortezomib; first compound 0.02 µM) | relative viability (Imatinib + Bortezomib; first compound 0.06325 µM) | relative viability (Imatinib + Bortezomib; first compound 0.2 µM) | relative viability (Imatinib + Bortezomib; first compound 0.6325 µM) | relative viability (Imatinib + Bortezomib; first compound 2 µM) | relative viability (Imatinib + Lapatinib; first compound 0.06325 µM) | relative viability (Imatinib + Lapatinib; first compound 0.2 µM) | relative viability (Imatinib + Lapatinib; first compound 0.6325 µM) | relative viability (Imatinib + Lapatinib; first compound 2 µM) | relative viability (Imatinib + Pictilisib; first compound 0.02 µM) | relative viability (Imatinib + Pictilisib; first compound 0.06325 µM) | relative viability (Imatinib + Pictilisib; first compound 0.2 µM) | relative viability (Imatinib + Pictilisib; first compound 0.6325 µM) | relative viability (Imatinib + Pictilisib; first compound 2 µM) | relative viability (Imatinib + Alpelisib; first compound 0.06325 µM) | relative viability (Imatinib + Alpelisib; first compound 0.2 µM) | relative viability (Imatinib + Alpelisib; first compound 0.6325 µM) | relative viability (Imatinib + Alpelisib; first compound 2 µM) | relative viability (Imatinib + Lapatinib; first compound 0.02 µM) | relative viability (Imatinib + Alpelisib; first compound 0.02 µM)
HCC-15 | 1.03 | 0.93 | 1.07 | 1.13 | 1.02 | 0.582 | 1 | 0.901 | 0.839 | 0.719 | 0.324 | 0.777 | 0.809 | 0.698 | 0.853 | 0.883 | 0.814 | 0.885 | – | –
HCC-44 | 1.04 | 0.945 | 0.979 | 0.896 | 0.813 | 1.15 | – | 0.991 | 0.934 | 0.604 | 0.653 | 0.974 | 0.548 | 0.529 | 0.819 | 0.941 | 0.71 | 0.791 | 1.13 | 0.895
HCC-78 | 0.33 | 0.34 | 0.599 | 0.358 | 0.479 | 0.467 | 0.676 | – | 1.04 | 0.208 | 0.177 | 0.198 | 0.207 | 0.2 | 0.381 | 0.367 | 0.347 | 0.348 | 0.924 | 0.319
HCC-366 | 1.46 | – | 1.5 | 1.07 | 0.929 | – | 1.33 | 1.03 | 1.04 | 0.131 | 0.119 | 0.19 | 0.144 | 0.223 | – | 0.431 | 0.362 | 0.35 | 1.3 | 0.543
HCC-827 | – | 1 | 1.04 | 1.02 | – | 0.162 | 0.211 | 0.179 | 0.191 | 0.817 | 0.942 | 1.1 | 0.926 | 0.952 | 0.861 | 1.05 | – | 1.01 | 0.206 | 0.987
HOP-62 | 1.14 | – | 1.19 | 0.732 | 0.598 | – | 0.999 | 0.935 | 0.991 | 0.775 | – | 0.822 | 0.569 | 0.958 | – | 0.758 | – | 0.934 | 1.03 | 1.13
LCLC-103H | 1.08 | – | – | 1.13 | – | – | – | – | – | 0.67 | – | 0.692 | 0.578 | – | – | 0.9 | 0.851 | – | – | 0.909
LK-2 | – | – | – | – | – | 0.625 | 1.11 | 0.486 | 0.967 | 0.639 | – | 0.581 | 0.488 | 0.572 | – | 1.23 | 1.18 | 1.19 | 1.02 | 1.33
NCI-H358 | – | – | – | – | – | – | 0.445 | 0.448 | 0.392 | 0.292 | – | 0.326 | 0.275 | 0.347 | – | 0.841 | 0.759 | 0.868 | 0.478 | 0.799
NCI-H441 | 1.12 | 0.616 | 0.543 | 0.439 | 0.435 | – | – | – | – | 0.501 | 0.437 | 0.578 | 0.502 | 0.435 | 0.903 | 0.87 | 0.706 | 0.605 | – | 0.633
NCI-H838 | 1.04 | 0.823 | 0.947 | 1 | 0.886 | – | – | – | – | 0.447 | 0.55 | 0.519 | 0.465 | 0.499 | 1.06 | 1.12 | 1.06 | 1.04 | – | 1.02
NCI-H1395 | – | – | – | – | – | – | – | 0.988 | 1.19 | 0.622 | – | 0.6 | 0.651 | 0.605 | – | 1.08 | 1 | 0.999 | 0.956 | 1.03
NCI-H1650 | 0.211 | 0.204 | 0.22 | 0.22 | 0.233 | 0.489 | 0.845 | 0.816 | 0.886 | 0.638 | 0.338 | 0.589 | 0.574 | 0.661 | – | – | – | – | 0.797 | –
NCI-H1793 | – | – | – | – | – | – | 0.536 | 0.647 | 0.831 | 0.272 | – | 0.332 | 0.412 | 0.413 | – | 0.801 | 0.73 | 0.674 | 0.841 | 0.721
NCI-H1944 | – | – | – | – | – | – | 0.991 | 0.853 | 0.771 | 0.353 | – | 0.368 | 0.324 | 0.335 | – | 0.893 | 0.714 | 0.84 | 0.8 | 0.85
NCI-H2023 | 1.08 | 0.425 | 1.16 | 0.925 | 1.02 | – | – | – | – | 0.247 | 0.191 | 0.224 | 0.213 | 0.217 | 0.728 | 0.653 | 0.577 | 0.586 | – | 0.633
NCI-H2126 | 1.12 | – | 1.19 | 1.05 | 1.12 | – | 0.828 | 0.684 | 0.704 | 0.507 | – | 0.484 | 0.452 | 0.475 | – | – | – | – | – | –
NCI-H2170 | – | – | – | – | – | 0.28 | 0.282 | 0.263 | 0.245 | 0.292 | 0.334 | 0.283 | 0.254 | 0.26 | 0.931 | 0.846 | 0.789 | 0.797 | 0.266 | 0.954
SK-MES-1 | – | – | – | – | – | 0.512 | 0.505 | 0.471 | 0.494 | 0.366 | 0.323 | 0.39 | 0.357 | 0.379 | 0.891 | 1.03 | 0.954 | 0.988 | 0.496 | 0.887
